The source of these data is US11401279B2, “Pyrido[3,2-d]pyrimidine compounds as immunomodulators” (Incyte Corporation, priority 2019, dated 2022).

Where two headings read alike, the source gives them in different places.

In data set [1] the target is PD-1/PD-L1 (Homo sapiens (Human), UniProt Q9NZQ7). In words: Homogeneous Time-Resolved Fluorescence (HTRF) PD-1/PD-L1 binding assay. The note with it: recombinant human PD-1 and PD-L1. Put shortly: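 Human PD-1 (25-167, Fc-tagged; 3 nM) and PD-L1 (19-238, His-tagged; 10 nM) were preincubated 40 min with inhibitors in PBS pH 7.4, 0.05% Tween-20, 0.1% BSA, 1% DMSO, at 25 °C. Eu-anti-human IgG (1 nM) and anti-His-APC (20 nM) were added for 60 min. The 665/620 nm HTRF ratio gave IC50 by curve fitting.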

Data set [2] concerns U2OS/PD-L1 cells and Jurkat-PD-1-SHP cells. In words: Src homology region 2 domain-containing phosphatase (SHP) assay. Format: cell-based. The settings on record: PathHunter chemiluminescence, 2 hours. Put shortly:
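U2OS/PD-L1 cells and Jurkat-PD-1-SHP cells, 5000 each, were co-incubated with compound for 2 h at 37 °C in RPMI with 1% FBS. PathHunter enzyme-fragment complementation chemiluminescence reported PD-1/SHP recruitment. IC50 was fitted from percent of DMSO-control activity versus log concentration.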

Data set [3] can be described thus: In vivo pharmacokinetics in rats. The note with it: rat, cassette dosing; for AUC(0-inf) / Cmax / F: 3.0 mg/kg PO; for Vd: read-out: Vss. Also on record: species or system Sprague Dawley rats. The method, then: For in vivo pharmacokinetic experiments, test compounds were administered to male Sprague Dawley rats or male and female Cynomolgus monkeys intravenously or via oral gavage. For intravenous (IV) dosing, test compounds were dosed at 0.5 to 1 mg/kg using a formulation of 10% dimethylacetamide (DMAC) in acidified saline via IV bolus for rat and 5 min or 10 min IV infusion for monkey. For oral (PO) dosing, test compounds were dosed at 1.0 to 3.0 mg/kg using 5% DMAC in 0.5% methylcellulose in citrate buffer (pH 3.5). Blood samples were collected at predose and various time points up to 24 hours postdose. All blood samples were collected using EDTA as the anticoagulant and centrifuged to obtain plasma samples. The plasma concentrations of test compounds were determined by LC-MS methods. The measured plasma concentrations were used to calculate PK parameters by standard noncompartmental methods using Phoenix® WinNonlin software program (version 7.0, Pharsight Corporation).
In rats and monkeys, cassette dosing of test compounds were conducted to obtain preliminary PK parameters.

Data set [4] deals with PD-L1 (Homo sapiens (Human), UniProt Q9NZQ7). In words: PD-L1 whole blood internalization assay. The settings on record: PD-L1 internalization in human whole blood, CD14+ cells, interferon γ, 24 hour. The data set is classed as cell-based.
For data set [5], the system named is PD-L1 aAPC/CHO-K1 cells and Jurkat-PD-1-NFAT effector cells. The data set is described as follows: Nuclear factor of activated T-cells (NFAT) assay. The data set is classed as cell-based. The settings on record: luminescence, 24 hours. Put shortly: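 PD-L1 aAPC/CHO-K1 cells (8000/well) co-cultured with Jurkat-PD-1-NFAT effector cells (10,000/well) plus compound in RPMI/1% FBS, 0.4% DMSO, top concentration 2 μM, 24 h at 37 °C. NFAT luciferase read by Bio-Glo luminescence. Fold induction normalized to DMSO; maximum induction relative to control compound; EC50 from curve fit.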

Where [6] appears, read: male, Sprague-Dawley, plasma, 1.0 mg/kg IV.
Where [7] appears, read: male, Sprague-Dawley, plasma, read-out: AUC0-inf.

PD-1/PD-L1, sequence (Q9NZQ7 19-238): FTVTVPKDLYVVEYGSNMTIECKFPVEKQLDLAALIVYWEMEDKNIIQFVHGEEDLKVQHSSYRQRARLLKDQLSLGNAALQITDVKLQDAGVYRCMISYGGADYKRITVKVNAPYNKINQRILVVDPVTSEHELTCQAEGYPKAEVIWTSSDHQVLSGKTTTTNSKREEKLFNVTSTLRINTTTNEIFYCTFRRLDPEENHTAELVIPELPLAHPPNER
PD-L1, sequence (Q9NZQ7 19-290): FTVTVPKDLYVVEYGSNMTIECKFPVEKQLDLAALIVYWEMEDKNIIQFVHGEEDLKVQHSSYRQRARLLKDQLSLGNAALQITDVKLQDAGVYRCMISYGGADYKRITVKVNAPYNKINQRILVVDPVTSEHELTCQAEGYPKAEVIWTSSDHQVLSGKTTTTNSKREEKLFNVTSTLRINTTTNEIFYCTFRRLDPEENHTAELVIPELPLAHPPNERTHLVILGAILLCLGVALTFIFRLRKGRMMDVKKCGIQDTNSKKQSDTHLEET

For the compound `Cn1c(C(=O)Nc2cccc(-c3cccc(NC(=O)c4nc5c(n4C)CCN(CC46CCC(C(=O)O)(CC4)C6)C5)c3Cl)c2Cl)nc2c1CCN(CCO)C2` [Example 180], the IC50 in data set [1] is 1.5 nM. Also, half-maximal inhibition in data set [2] (IC50) required 4.4 nM. Besides, in data set [3] (1.0 mg/kg IV), the Cl came to 1.57 L/h/kg, the Vss worked out at 2.48 L/kg and the t1/2 turned out to be 2.21 h. Also, in data set [3], the AUC(0-inf) was 0.956 µM·h, the Cmax was found to be 231 nM and the F is 38%. Besides, in data set [4], the IC50 was 166 nM. For the same compound, the EC50 in data set [5] came to 30 nM.

`Cc1c(-c2nc3cc(CN4CC[C@@H](O)C4)cc(C#N)c3o2)cccc1-c1cccc(NC(=O)c2nc3c(n2C)CCN(CCC2CCC(C(=O)O)CC2)C3)c1Cl` (stereo partly shown) [Example 265]: the IC50 was 2.3 nM in data set [1]; 4.9 nM in data set [2] (Homo sapiens, U2OS); 62 nM in data set [4]. In addition, the clearance in data set [3] (setting [6]) was 63.7 mL/min/kg. Besides, the Vd in data set [3] (setting [6]) came out at 4.45 L/kg. The same compound gave a Cmax in data set [3] (male, Sprague-Dawley, plasma) of 57 nM. In data set [3] (setting [7]), the AUC(0-inf) was 0.398 µM·h. In data set [3], this compound displayed an F of 8%. The compound also yielded an EC50 in data set [5] (Cricetulus griseus, CHO-K1) of 15 nM.

For the compound `Cc1c(-c2nc3cc(CN4CC[C@@H](O)C4)cc(C#N)c3o2)cccc1-c1cccc(NC(=O)c2nc3c(n2C)CCN(CC24CCC(C(=O)O)(CC2)C4)C3)c1Cl` [Example 267], the IC50 in data set [1] was 2.3 nM; in data set [2] (Homo sapiens, U2OS) it was 7.8 nM; in data set [4] it was 121 nM. The compound further gave a half-life in data set [3] (setting [6]) of 197 min. The Vd in data set [3] (setting [6]) came out at 2.22 L/kg. Further, in data set [3] (male, Sprague-Dawley, plasma), the highest level (Cmax) was 108 nM. Also, the AUC(0-inf) in data set [3] (setting [7]) stood at 0.687 µM·h. This compound also had a F in data set [3] of 12%. The same compound came in with an EC50 in data set [5] (Cricetulus griseus, CHO-K1) of 39 nM.

Broadly, the IC50 is the concentration that gives 50% inhibition. As a reminder, the Vss is the apparent volume that relates the amount in the body to the concentration in plasma or blood. A word on the Cmax: it is the peak of the concentration-time curve. In general, EC50 refers to the concentration that produces a half-maximal response. A high value points to a less potent agent. In general, clearance refers to the volume of plasma or blood freed of the substance per unit of time. Low values mean inefficient removal, high ones efficient removal. By half-life is commonly meant how long it takes for the measured level to halve.
